Assay results from ChEMBL document CHEMBL6178016, “Design, Synthesis, and Biological Evaluation of New PDE4 Inhibitors for the Treatment of Pressure Ulcers” (J Med Chem, 2025).
pIC50: −log10 of the molar value. Active and inactive are the calls of the source. The rule behind the calls is not given here.

What was measured:
[1] = target: Voltage-gated inwardly rectifying potassium channel KCNH2 (Homo sapiens, UniProt Q12809); assay: Inhibition of human ERG stably expressed in HEK293 cells by manual membrane clamp technique; type: toxicity, cell-based
Rattus norvegicus [2] = species: Rattus norvegicus; assay: Antiinflammatory activity against male Sprague-Dawley rat pressure ulcer model assessed as increase in CREB phosphorylation expression by immunohistochemical staining based analysis; type: functional, organism-based
RAW264.7 [3] = assay: Antiinflammatory activity against mouse RAW264.7 cells assessed as inhibition of LPS-induced TNF-alpha release preincubated for 2 hrs followed by LPS stimulation and measured after 4 hrs by RT-PCR analysis; type: functional, cell-based
[4] = Toxicity in male Sprague-Dawley rat assessed as pathological changes in liver by H and E staining based analysis; type: tissue-based; conditions: in vivo
RAW264.7 [5] = assay: Cytotoxicity against mouse RAW264.7 cells at 10 uM measured after 24 hrs by CCK-8 method; type: functional, cell-based
[6] = Tmax in Sprague-Dawley rat at 10 mg/kg, po; type: ADME, organism-based; conditions: in vivo
[7] = Acute toxicity in female Kunming mouse assessed as effect on weight at 500 to 4000 mg/kg measured after 14 days; type: organism-based; conditions: in vivo, 336 h, dose 500-4000 mg/kg, time 14 day
Rattus norvegicus [8] = assay: Antiinflammatory activity against male Sprague-Dawley rat pressure ulcer model assessed as appearance of thinner epidermal layer at 0.625 to 2.5% administered as ointment by Masson staining based analysis; type: functional, organism-based
[9] = Half life in Sprague-Dawley rat at 10 mg/kg, po; type: ADME, organism-based; conditions: in vivo
Rattus norvegicus [10] = assay: Antiinflammatory activity against male Sprague-Dawley rat pressure ulcer model assessed as reduction in TNF-alpha mRNA expression in skin at 1.25% administered as ointment by qRT-PCR analysis; type: functional, organism-based
RAW264.7 [11] = assay: Antiinflammatory activity against LPS induced mouse RAW264.7 cells assessed as increase in CREB phosphorylation expression at 5 to 20 uM by Western blot analysis; type: functional, cell-based; conditions: dose 5-20 µM
[12] = target: Dual specificity calcium/calmodulin-dependent 3',5'-cyclic nucleotide phosphodiesterase 1A (Homo sapiens, UniProt P54750); assay: Inhibition of PDE1A (unknown origin)
[13] = Toxicity in male Sprague-Dawley rat assessed as pathological changes in kidney by H and E staining based analysis; type: tissue-based; conditions: in vivo
Cytochrome P450 2C9 = Cytochrome P450 2C9 (Homo sapiens, UniProt P11712); assay: Inhibition of human CYP2C9; type: ADME
[14] = Acute toxicity in male Kunming mouse assessed as effect on pathological changes in kidney at 500 to 4000 mg/kg measured after 14 days by H and E staining based analysis; type: organism-based; conditions: in vivo, 336 h, dose 500-4000 mg/kg, time 14 day
[15] = AUC (0 to infinity) in Sprague-Dawley rat at 10 mg/kg, po; type: ADME, organism-based; conditions: in vivo
[16] = Acute toxicity in male Kunming mouse assessed as effect on pathological changes in liver at 500 to 4000 mg/kg measured after 14 days by H and E staining based analysis; type: organism-based; conditions: in vivo, 336 h, dose 500-4000 mg/kg, time 14 day
Cytochrome P450 2D6 = Cytochrome P450 2D6 (Homo sapiens, UniProt P10635); assay: Inhibition of human CYP2D6; type: ADME
Enterococcus faecium = assay: Antibacterial activity against Enterococcus faecium BNCC358275 assessed as reduction in bacterial colonies growth at 512 ug/ml measured after 24 hrs by agar plate method; type: functional, organism-based; conditions: dose 512.0 µg/ml
Cytochrome P450 3A4 = Cytochrome P450 3A4 (Homo sapiens, UniProt P08684); assay: Inhibition of human CYP3A4; type: ADME
Rattus norvegicus [17] = assay: Antiinflammatory activity against male Sprague-Dawley rat pressure ulcer model assessed as decrease in inflammatory cells in dermis at 0.625 to 2.5% administered as ointment by Masson staining based analysis; type: functional, organism-based
[18] = Acute toxicity in male Kunming mouse assessed as effect on weight at 500 to 4000 mg/kg measured after 14 days; type: organism-based; conditions: in vivo, 336 h, dose 500-4000 mg/kg, time 14 day
[19] = target: Cone cGMP-specific 3',5'-cyclic phosphodiesterase subunit alpha' (Homo sapiens, UniProt P51160); assay: Inhibition of PDE6C (unknown origin)
Rattus norvegicus [20] = assay: Antiinflammatory activity against male Sprague-Dawley rat pressure ulcer model assessed as wound healing rate at 2.5% administration as ointment measured after 7 days (reference value: 70%); type: functional; conditions: time 7 day
[21] = Acute toxicity in female Kunming mouse assessed as effect on pathological changes in heart at 500 to 4000 mg/kg measured after 14 days by H and E staining based analysis; type: organism-based; conditions: in vivo, 336 h, dose 500-4000 mg/kg, time 14 day
[22] = Half life in Sprague-Dawley rat at 5 mg/kg, iv; type: ADME, organism-based; conditions: in vivo
Rattus norvegicus [23] = assay: Antiinflammatory activity against male Sprague-Dawley rat pressure ulcer model assessed as wound healing rate at 1.25% administration as ointment measured after 7 days (reference value: 70%); type: functional; conditions: time 7 day
HUVEC = assay: Inhibition of cell migration in HUVEC cells; type: functional, cell-based; conditions: Homo sapiens, dose 5-20 µM
[24] = target: 3',5'-cyclic-AMP phosphodiesterase 4D (Homo sapiens, UniProt Q08499); assay: Inhibition of PDE4D (unknown origin)
[25] = Acute toxicity in female Kunming mouse assessed as effect on pathological changes in spleen at 500 to 4000 mg/kg measured after 14 days by H and E staining based analysis; type: organism-based; conditions: in vivo, 336 h, dose 500-4000 mg/kg, time 14 day
Rattus norvegicus [26] = assay: Antiinflammatory activity against male Sprague-Dawley rat pressure ulcer model assessed as decrease in inflammatory cells in dermis at 0.625 to 2.5% administered as ointment by H and E staining based analysis; type: functional, organism-based
RAW264.7 [27] = assay: Antiinflammatory activity against LPS induced mouse RAW264.7 cells assessed as increase in CREB phosphorylation expression at 5 to 20 uM by immunofluorescence analysis; type: functional, cell-based; conditions: dose 5-20 µM
Rattus norvegicus [28] = assay: Antiinflammatory activity against male Sprague-Dawley rat pressure ulcer model assessed as appearance of orderly arranged cells at 0.625 to 2.5% administered as ointment by H and E staining based analysis; type: functional, organism-based
Rattus norvegicus [29] = assay: Antiinflammatory activity against male Sprague-Dawley rat pressure ulcer model assessed as appearance of orderly arranged cells at 0.625 to 2.5% administered as ointment by Masson staining based analysis; type: functional, organism-based
[30] = target: cAMP and cAMP-inhibited cGMP 3',5'-cyclic phosphodiesterase 10A (Homo sapiens, UniProt Q9Y233); assay: Inhibition of PDE10A (unknown origin)
[31] = Cmax in Sprague-Dawley rat at 10 mg/kg, po; type: ADME, organism-based; conditions: in vivo
[32] = target: cGMP-inhibited 3',5'-cyclic phosphodiesterase 3A (Homo sapiens, UniProt Q14432); assay: Inhibition of PDE3A (unknown origin)
[33] = Acute toxicity in male Kunming mouse assessed as effect on pathological changes in lung at 500 to 4000 mg/kg measured after 14 days by H and E staining based analysis; type: organism-based; conditions: in vivo, 336 h, dose 500-4000 mg/kg, time 14 day
[34] = target: High affinity 3',5'-cyclic-AMP phosphodiesterase 7A (Homo sapiens, UniProt Q13946); assay: Inhibition of PDE7A (unknown origin)
[35] = Acute toxicity in male Kunming mouse assessed as effect on pathological changes in heart at 500 to 4000 mg/kg measured after 14 days by H and E staining based analysis; type: organism-based; conditions: in vivo, 336 h, dose 500-4000 mg/kg, time 14 day
[36] = target: cGMP-dependent 3',5'-cyclic phosphodiesterase (Homo sapiens, UniProt O00408); assay: Inhibition of PDE2A (unknown origin)
RAW264.7 [37] = assay: Cytotoxicity against mouse RAW264.7 cells measured after 24 hrs by CCK-8 method; type: functional

Chain of Cytochrome P450 2C9 (P11712 whole entry): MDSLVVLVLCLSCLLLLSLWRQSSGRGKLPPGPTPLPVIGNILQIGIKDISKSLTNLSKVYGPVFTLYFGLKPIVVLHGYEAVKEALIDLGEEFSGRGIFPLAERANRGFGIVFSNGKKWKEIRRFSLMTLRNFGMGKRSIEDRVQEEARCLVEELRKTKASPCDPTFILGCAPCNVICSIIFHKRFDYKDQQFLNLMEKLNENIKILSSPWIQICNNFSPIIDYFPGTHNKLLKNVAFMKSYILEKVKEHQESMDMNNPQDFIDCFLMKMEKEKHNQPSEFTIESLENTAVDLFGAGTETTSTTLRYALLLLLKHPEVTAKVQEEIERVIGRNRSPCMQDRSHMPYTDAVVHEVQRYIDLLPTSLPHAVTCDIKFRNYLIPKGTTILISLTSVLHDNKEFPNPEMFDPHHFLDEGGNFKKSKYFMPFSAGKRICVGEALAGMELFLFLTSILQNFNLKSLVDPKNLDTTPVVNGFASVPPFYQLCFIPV
Chain of Cone cGMP-specific 3',5'-cyclic phosphodiesterase subunit alpha' (P51160 whole entry): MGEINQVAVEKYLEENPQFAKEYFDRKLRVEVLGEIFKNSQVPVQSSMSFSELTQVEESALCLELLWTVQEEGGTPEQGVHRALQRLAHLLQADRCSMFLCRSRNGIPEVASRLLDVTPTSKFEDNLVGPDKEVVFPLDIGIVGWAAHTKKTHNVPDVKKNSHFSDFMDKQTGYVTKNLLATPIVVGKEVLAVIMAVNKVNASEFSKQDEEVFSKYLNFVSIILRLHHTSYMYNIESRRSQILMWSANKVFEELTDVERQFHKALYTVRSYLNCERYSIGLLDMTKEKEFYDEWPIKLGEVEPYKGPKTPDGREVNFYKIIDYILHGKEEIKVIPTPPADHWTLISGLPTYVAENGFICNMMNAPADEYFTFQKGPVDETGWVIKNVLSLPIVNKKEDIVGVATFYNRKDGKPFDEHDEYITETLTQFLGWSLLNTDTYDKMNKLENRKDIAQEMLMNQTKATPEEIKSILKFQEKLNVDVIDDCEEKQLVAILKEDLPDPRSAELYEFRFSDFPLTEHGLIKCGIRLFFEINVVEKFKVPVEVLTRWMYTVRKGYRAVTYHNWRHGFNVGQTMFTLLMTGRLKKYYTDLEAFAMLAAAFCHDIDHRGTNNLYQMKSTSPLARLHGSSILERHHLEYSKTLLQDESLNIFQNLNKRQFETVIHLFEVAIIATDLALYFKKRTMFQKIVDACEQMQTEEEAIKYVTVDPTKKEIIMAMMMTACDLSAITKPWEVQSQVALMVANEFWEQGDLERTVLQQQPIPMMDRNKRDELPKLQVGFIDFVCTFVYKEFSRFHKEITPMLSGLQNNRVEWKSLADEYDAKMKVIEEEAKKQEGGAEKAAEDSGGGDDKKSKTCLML
Chain of Dual specificity calcium/calmodulin-dependent 3',5'-cyclic nucleotide phosphodiesterase 1A (P54750 whole entry): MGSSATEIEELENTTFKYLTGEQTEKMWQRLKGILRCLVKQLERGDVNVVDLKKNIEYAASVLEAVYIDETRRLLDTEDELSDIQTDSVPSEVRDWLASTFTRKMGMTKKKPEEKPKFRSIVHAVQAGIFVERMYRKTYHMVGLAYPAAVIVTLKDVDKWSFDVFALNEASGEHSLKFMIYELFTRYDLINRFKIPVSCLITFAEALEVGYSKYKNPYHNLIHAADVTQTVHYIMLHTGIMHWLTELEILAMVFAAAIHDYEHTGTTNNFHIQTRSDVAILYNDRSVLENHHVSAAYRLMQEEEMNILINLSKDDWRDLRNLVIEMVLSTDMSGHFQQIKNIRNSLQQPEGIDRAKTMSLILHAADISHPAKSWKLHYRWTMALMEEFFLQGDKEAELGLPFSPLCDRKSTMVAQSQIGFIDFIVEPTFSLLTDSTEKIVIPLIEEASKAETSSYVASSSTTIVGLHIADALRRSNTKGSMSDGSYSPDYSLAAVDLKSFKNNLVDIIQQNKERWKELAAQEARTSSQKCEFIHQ
Chain of cGMP-dependent 3',5'-cyclic phosphodiesterase (O00408 whole entry): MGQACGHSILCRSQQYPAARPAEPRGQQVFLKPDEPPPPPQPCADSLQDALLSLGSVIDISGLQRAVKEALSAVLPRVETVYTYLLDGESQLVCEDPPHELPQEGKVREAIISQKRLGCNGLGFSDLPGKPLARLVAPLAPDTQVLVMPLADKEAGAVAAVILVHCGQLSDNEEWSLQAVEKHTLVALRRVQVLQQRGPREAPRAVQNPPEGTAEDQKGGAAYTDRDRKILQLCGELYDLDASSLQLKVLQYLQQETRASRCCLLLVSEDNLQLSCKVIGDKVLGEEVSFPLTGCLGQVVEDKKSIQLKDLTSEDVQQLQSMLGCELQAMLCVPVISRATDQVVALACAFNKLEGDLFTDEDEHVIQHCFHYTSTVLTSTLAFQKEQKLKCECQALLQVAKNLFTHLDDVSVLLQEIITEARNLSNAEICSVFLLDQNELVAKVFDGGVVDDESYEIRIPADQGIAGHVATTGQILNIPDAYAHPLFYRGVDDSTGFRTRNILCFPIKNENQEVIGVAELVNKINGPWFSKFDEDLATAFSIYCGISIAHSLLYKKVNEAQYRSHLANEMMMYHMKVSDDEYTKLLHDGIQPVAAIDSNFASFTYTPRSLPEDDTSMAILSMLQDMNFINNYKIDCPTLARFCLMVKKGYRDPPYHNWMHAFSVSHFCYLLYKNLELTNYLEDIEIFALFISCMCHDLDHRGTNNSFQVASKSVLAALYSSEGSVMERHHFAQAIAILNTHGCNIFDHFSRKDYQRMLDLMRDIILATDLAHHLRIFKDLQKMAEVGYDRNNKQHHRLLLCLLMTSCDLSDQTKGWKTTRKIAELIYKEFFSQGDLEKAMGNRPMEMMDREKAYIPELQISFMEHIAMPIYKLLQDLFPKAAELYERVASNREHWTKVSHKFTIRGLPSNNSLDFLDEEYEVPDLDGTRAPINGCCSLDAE
Chain of Voltage-gated inwardly rectifying potassium channel KCNH2 (Q12809 whole entry): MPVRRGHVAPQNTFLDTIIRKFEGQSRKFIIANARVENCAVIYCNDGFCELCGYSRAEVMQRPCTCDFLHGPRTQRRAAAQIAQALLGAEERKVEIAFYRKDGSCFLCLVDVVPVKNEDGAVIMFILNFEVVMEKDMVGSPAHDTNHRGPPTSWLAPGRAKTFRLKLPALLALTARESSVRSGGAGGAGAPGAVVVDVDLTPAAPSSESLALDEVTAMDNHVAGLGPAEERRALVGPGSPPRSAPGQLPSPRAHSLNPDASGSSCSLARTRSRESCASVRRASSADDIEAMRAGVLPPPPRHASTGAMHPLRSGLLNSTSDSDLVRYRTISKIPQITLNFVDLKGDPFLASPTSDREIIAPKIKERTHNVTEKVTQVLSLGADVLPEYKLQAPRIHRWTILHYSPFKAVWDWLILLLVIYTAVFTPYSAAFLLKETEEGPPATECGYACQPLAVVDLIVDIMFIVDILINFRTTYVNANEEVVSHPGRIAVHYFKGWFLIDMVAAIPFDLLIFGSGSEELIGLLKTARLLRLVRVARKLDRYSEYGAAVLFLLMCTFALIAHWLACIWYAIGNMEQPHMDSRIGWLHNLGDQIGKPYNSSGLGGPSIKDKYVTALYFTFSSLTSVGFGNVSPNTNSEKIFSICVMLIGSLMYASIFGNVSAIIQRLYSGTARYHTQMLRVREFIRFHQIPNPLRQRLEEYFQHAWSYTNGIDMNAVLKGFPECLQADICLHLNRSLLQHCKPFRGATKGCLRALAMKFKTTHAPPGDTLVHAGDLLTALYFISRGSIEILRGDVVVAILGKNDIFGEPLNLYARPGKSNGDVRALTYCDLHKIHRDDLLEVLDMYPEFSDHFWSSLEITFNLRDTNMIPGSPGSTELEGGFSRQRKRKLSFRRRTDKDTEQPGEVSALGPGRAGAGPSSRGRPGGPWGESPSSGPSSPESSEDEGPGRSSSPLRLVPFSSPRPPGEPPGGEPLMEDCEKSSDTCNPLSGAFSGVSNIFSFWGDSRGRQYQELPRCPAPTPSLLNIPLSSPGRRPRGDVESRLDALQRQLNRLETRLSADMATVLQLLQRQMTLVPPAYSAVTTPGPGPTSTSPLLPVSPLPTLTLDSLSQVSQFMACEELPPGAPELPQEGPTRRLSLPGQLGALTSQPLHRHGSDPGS
Chain of Cytochrome P450 2D6 (P10635 whole entry): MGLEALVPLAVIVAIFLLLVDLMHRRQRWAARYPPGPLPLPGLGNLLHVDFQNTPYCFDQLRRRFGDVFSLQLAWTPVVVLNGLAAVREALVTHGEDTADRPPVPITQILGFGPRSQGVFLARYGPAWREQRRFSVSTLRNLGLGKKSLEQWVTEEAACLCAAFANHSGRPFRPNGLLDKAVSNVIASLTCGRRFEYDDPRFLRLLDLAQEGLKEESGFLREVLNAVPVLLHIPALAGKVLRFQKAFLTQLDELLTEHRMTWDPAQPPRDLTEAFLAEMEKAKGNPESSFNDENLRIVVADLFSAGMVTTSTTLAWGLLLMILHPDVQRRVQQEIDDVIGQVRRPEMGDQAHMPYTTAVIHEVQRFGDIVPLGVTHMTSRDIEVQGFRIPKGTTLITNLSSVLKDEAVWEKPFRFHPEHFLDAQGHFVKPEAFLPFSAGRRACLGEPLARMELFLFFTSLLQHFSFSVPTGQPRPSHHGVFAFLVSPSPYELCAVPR
Chain of High affinity 3',5'-cyclic-AMP phosphodiesterase 7A (Q13946 whole entry): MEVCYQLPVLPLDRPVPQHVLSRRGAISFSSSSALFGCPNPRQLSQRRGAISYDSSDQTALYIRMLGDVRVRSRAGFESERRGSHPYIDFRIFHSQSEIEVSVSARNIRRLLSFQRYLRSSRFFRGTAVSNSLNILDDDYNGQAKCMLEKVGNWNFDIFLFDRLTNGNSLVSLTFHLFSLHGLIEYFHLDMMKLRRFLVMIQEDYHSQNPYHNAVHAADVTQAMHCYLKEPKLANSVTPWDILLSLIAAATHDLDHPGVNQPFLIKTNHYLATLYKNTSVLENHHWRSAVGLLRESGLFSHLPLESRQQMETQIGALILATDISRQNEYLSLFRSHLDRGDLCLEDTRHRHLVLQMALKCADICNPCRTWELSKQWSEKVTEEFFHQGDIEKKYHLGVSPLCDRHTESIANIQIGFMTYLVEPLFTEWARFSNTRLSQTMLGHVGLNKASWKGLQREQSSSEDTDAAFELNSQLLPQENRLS

In the case of `Cn1c(=O)c2c(ncn2CCC(=O)NNC(=O)c2cc3nccc(-c4ccc(OC(F)F)c(OCC5CC5)c4)n3n2)n(C)c1=O`, the pIC50 [1] was less than 5.00, the Activity (Rattus norvegicus [2]) was “Active” and the pIC50 (RAW264.7 [3]) was 4.88. For the same molecule, the Activity [4] was “Non-toxic”, the Activity (RAW264.7 [5]) was “inactive” and the Tmax [6] was 15 min. For the same molecule, the Activity [7] was “Non-toxic”, the Activity (Rattus norvegicus [8]) was “Active” and the half-life [9] was 84 min. For the same molecule, the Activity (Rattus norvegicus [10]) was “Active”, the Activity (RAW264.7 [11]) was “Active” and the pIC50 [12] was less than 4.30. For the same molecule, the Activity [13] was “Non-toxic”, the pIC50 (Cytochrome P450 2C9) was 4.61 and the Activity [14] was “Non-toxic”. The AUC(0-inf) [15] was 26.8 ng·h/mL, the Activity [16] was “Non-toxic” and the pIC50 (Cytochrome P450 2D6) was less than 4.30. The Activity (Enterococcus faecium) was “Active”, the pIC50 (Cytochrome P450 3A4) was less than 4.30 and the Activity (Rattus norvegicus [17]) was “Active”. For the same molecule, the Activity [18] was “Non-toxic”, the pIC50 [19] was less than 4.30 and the Activity (Rattus norvegicus [20]) was 81%. The Activity [21] was “Non-toxic”, the half-life [22] was 16.8 min and the Activity (Rattus norvegicus [23]) was 93%. The inhibition (HUVEC) was “Dose-dependent-effect”, the pIC50 [24] was 7.54 and the Activity [25] was “Non-toxic”. For the same molecule, the Activity (Rattus norvegicus [26]) was “Active”, the Activity (RAW264.7 [27]) was “Active” and the Activity (Rattus norvegicus [28]) was “Active”. For the same molecule, the Activity (Rattus norvegicus [29]) was “Active”, the pIC50 [30] was 5.95 and the Cmax [31] was 14.4 ng/mL. For the same molecule, the pIC50 [32] was less than 4.30, the Activity [33] was “Non-toxic” and the pIC50 [34] was 4.82. For the same molecule, the Activity [35] was “Non-toxic”, the pIC50 [36] was less than 4.30 and the CC50 (RAW264.7 [37]) was greater than 90 µM.
